ChEMBL document CHEMBL5244281, “Tackling multidrug-resistant Staphylococcus aureus by natural products and their analogues acting as NorA efflux pump inhibitors” (Bioorg Med Chem, 2023)
In brackets after ≈: the same amount, converted by molar mass.

Legend:
Staphylococcus aureus [1] = assay: Synergistic antimicrobial activity against Staphylococcus aureus 1199B overexpressing NorA efflux pump assessed as reduction in norfloxacin MIC incubated for 24 hrs by MTT colorimetric assay (Rvb= […]); type: functional
Staphylococcus aureus [2] = assay: Synergistic antimicrobial activity against Staphylococcus aureus 1199B overexpressing NorA efflux pump assessed as fractional inhibitory concentration index incubated for 24 hrs by checkerboard method; type: functional
Staphylococcus aureus [3] = assay: Antibacterial activity against norfloxacin resistant Staphylococcus aureus 1199 assessed as bacterial growth inhibition incubated for 24 hrs by resazurin based broth microdilution method; type: functional
Staphylococcus aureus [4] = assay: Antibacterial activity against norfloxacin resistant Staphylococcus aureus 1199B overexpressing NorA assessed as bacterial growth inhibition incubated for 24 hrs by resazurin based broth microdilution method; type: functional
[5] = molecular target: T1, Quinolone resistance protein NorA (Staphylococcus aureus) (UniProt P0A0J7); assay: Potentiation of norfloxacin-induced inhibition of NorA efflux pump in Staphylococcus aureus 1199A assessed as reduction in norfloxacin MIC at 1/8 times of MIC incubated for 24 hrs by resazurin based broth microdilution method (Rvb= […] ug/ml)
T1 sequence (whole entry): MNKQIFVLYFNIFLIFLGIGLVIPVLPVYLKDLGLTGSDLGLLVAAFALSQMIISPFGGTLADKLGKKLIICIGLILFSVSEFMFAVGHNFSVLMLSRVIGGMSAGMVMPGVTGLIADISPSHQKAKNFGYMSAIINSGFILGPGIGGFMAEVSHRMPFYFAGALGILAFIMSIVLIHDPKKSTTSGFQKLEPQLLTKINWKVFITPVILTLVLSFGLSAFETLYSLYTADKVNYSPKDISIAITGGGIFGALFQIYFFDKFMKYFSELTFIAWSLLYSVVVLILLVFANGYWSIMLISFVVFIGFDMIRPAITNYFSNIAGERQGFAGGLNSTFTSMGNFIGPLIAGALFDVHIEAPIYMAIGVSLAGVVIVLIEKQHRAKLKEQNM

[6] = molecular target: T1, Quinolone resistance protein NorA (Staphylococcus aureus); assay: Potentiation of norfloxacin-induced inhibition of NorA efflux pump in Staphylococcus aureus 1199B overexpressing NorA efflux pump assessed as reduction in norfloxacin MIC at 1/8 times of MIC incubated for 24 hrs by resazurin based broth microdilution method (Rvb= 128 ug/ml)
[7] = molecular target: T1, Quinolone resistance protein NorA (Staphylococcus aureus); assay: Potentiation of EtBr-induced inhibition of NorA efflux pump in Staphylococcus aureus 1199A assessed as reduction in EtBr MIC at 1/8 times of MIC incubated for 24 hrs by resazurin based broth microdilution method (Rvb=32 ug/ml)
[8] = molecular target: T1, Quinolone resistance protein NorA (Staphylococcus aureus); assay: Potentiation of EtBr-induced inhibition of NorA efflux pump in Staphylococcus aureus 1199B overexpressing NorA efflux pump assessed as reduction in EtBr MIC at 1/8 times of MIC incubated for 24 hrs by resazurin based broth microdilution method (Rvb= 32 ug/ml)
Staphylococcus aureus [9] = assay: Antibacterial activity against norfloxacin resistant Staphylococcus aureus IS-58 overexpressing TetK efflux pump gene assessed as bacterial growth inhibition incubated for 18 to 24 hrs by NCCLS protocol based microdilution method; type: functional; settings: time 18-24 hrs
Staphylococcus aureus [10] = assay: Antibacterial activity against norfloxacin resistant Staphylococcus aureus RN4220 overexpressing MsrA efflux pump gene assessed as bacterial growth inhibition incubated for 18 to 24 hrs by NCCLS protocol based microdilution method; type: functional; settings: time 18-24 hrs
Staphylococcus aureus [11] = assay: Antibacterial activity against norfloxacin resistant Staphylococcus aureus 1199B overexpressing NorA efflux pump gene assessed as bacterial growth inhibition incubated for 18 to 24 hrs by NCCLS protocol based microdilution method; type: functional; settings: time 18-24 hrs
[12] = molecular target: T1, Quinolone resistance protein NorA (Staphylococcus aureus); assay: Modulation of norfloxacin-induced inhibition of NorA efflux pump in Staphylococcus aureus 1199B overexpressing NorA efflux pump assessed as reduction in norfloxacin MIC at 1/4 times of MIC by resazurin based assay
[13] = molecular target: T1, Quinolone resistance protein NorA (Staphylococcus aureus); assay: Modulation of EtBr -induced inhibition of NorA efflux pump in Staphylococcus aureus 1199B overexpressing NorA efflux pump assessed as reduction in EtBr MIC at 1/4 times of MIC using EtBr as substrate by resazurin based assay
Staphylococcus aureus [14] = assay: Antibacterial activity against methicillin-resistant Staphylococcus aureus 1199B overexpressing NorA gene assessed as bacterial growth inhibition; type: functional
Staphylococcus aureus [15] = assay: Antibacterial activity against wild type Staphylococcus aureus ATCC 25923 assessed as bacterial growth inhibition incubated for 24 hrs by resazurin based microdilution assay; type: functional
Staphylococcus aureus [16] = assay: Antibacterial activity against Staphylococcus aureus IS-58 overexpressing TetK efflux protein assessed as bacterial growth inhibition incubated for 24 hrs by resazurin based microdilution assay; type: functional
Staphylococcus aureus [17] = assay: Antibacterial activity against Staphylococcus aureus RN4220 overexpressing […] efflux protein assessed as bacterial growth inhibition incubated for 24 hrs by resazurin based microdilution assay; type: functional
Staphylococcus aureus [18] = assay: Antibacterial activity against Staphylococcus aureus 1199B overexpressing NorA efflux protein assessed as bacterial growth inhibition incubated for 24 hrs by resazurin based microdilution assay; type: functional
Staphylococcus aureus [19] = assay: Antibacterial activity against Staphylococcus aureus K2068 overexpressing mepA gene assessed as bacterial growth inhibition incubated for 24 hrs by resazurin based microdilution assay; type: functional
Staphylococcus aureus [20] = assay: Antibacterial activity against Staphylococcus aureus K4414 overexpressing qacA/B gene assessed as bacterial growth inhibition incubated for 24 hrs by resazurin based microdilution assay; type: functional
Staphylococcus aureus [21] = assay: Antibacterial activity against Staphylococcus aureus K4100 overexpressing qacC gene assessed as bacterial growth inhibition incubated for 24 hrs by resazurin based microdilution assay; type: functional
Staphylococcus aureus [22] = assay: Antibacterial activity against Staphylococcus aureus 1199B overexpressing NorA assessed as bacterial growth inhibition incubated for 18 hrs by MTT assay; type: functional
Staphylococcus aureus [23] = assay: Antibacterial activity against tetracycline-resistant Staphylococcus aureus XU212 assessed as bacterial growth inhibition incubated for 18 hrs by MTT assay; type: functional
Staphylococcus aureus [24] = assay: Antibacterial activity against Staphylococcus aureus ATCC25923 assessed as bacterial growth inhibition incubated for 18 hrs by MTT assay; type: functional
Staphylococcus aureus [25] = assay: Antibacterial activity against Staphylococcus aureus RN4220 assessed as bacterial growth inhibition incubated for 18 hrs by MTT assay; type: functional
Staphylococcus aureus [26] = assay: Antibacterial activity against Staphylococcus aureus EMRSA-15 assessed as bacterial growth inhibition incubated for 18 hrs by MTT assay; type: functional
Staphylococcus aureus [27] = assay: Antibacterial activity against Staphylococcus aureus 1199B expressing NorA efflux protein assessed as bacterial growth inhibition incubated for 24 hrs by resazurin based microdilution assay; type: functional
Staphylococcus aureus [28] = assay: Antibacterial activity against wild type Staphylococcus aureus 1199 assessed as bacterial growth inhibition incubated for 24 hrs by resazurin based microdilution assay; type: functional
[29] = molecular target: T1, Quinolone resistance protein NorA (Staphylococcus aureus); assay: Inhibition of NorA efflux pump in Staphylococcus aureus 1199B overexpressing NorA efflux pump assessed as norfloxacin MIC at 1/8 times of MIC using norfloxacin as substrate incubated for 24 hrs by resazurin based assay (Rvb= 406.37 ug/ml)
[30] = molecular target: T1, Quinolone resistance protein NorA (Staphylococcus aureus); assay: Inhibition of NorA efflux pump in Staphylococcus aureus 1199 assessed as norfloxacin MIC at 1/8 times of MIC using norfloxacin as substrate incubated for 24 hrs by resazurin based assay (Rvb= 32 ug/ml)
[31] = molecular target: T1, Quinolone resistance protein NorA (Staphylococcus aureus); assay: Inhibition of NorA efflux pump in Staphylococcus aureus 1199B overexpressing NorA efflux pump assessed as EtBr MIC at 1/8 times of MIC using EtBr as substrate incubated for 24 hrs by resazurin based assay (Rvb= 256 ug/ml)
[32] = molecular target: T1, Quinolone resistance protein NorA (Staphylococcus aureus); assay: Inhibition of NorA efflux pump in Staphylococcus aureus 1199 assessed as EtBr MIC at 1/8 times of MIC using EtBr as substrate incubated for 24 hrs by resazurin based assay (Rvb= 256 ug/ml)
Staphylococcus aureus [33] = assay: Antibacterial activity against norfloxacin resistant Staphylococcus aureus 1199B overexpressing NorA assessed as bacterial growth inhibition incubated for 24 hrs by resazurin based microdilution assay; type: functional
Staphylococcus aureus [34] = assay: Antibacterial activity against Staphylococcus aureus 1199 assessed as bacterial growth inhibition incubated for 24 hrs by broth microdilution method; type: functional
Staphylococcus aureus [35] = assay: Antibacterial activity against Staphylococcus aureus 1199B overexpressing NorA efflux gene assessed as bacterial growth inhibition incubated for 24 hrs by broth microdilution method; type: functional
Staphylococcus aureus [36] = assay: Antibacterial activity against NorA knockout Staphylococcus aureus K1758 assessed as bacterial growth inhibition incubated for 24 hrs by broth microdilution method; type: functional

C=CC[C@]12C=C(OC)C(=O)[C@H]([C@@H](c3ccc4c(c3)OCO4)[C@@H]1C)[C@@H]2OC(C)=O
MIC (Staphylococcus aureus [1]): 16 mg/L | fractional inhibitory concentration index (FICI) (Staphylococcus aureus [2]): 0.25

Cc1ccc(C(C)C)cc1O [CARVACROL]
MIC (Staphylococcus aureus [3]): 256 mg/L (≈ 1700 µM) | MIC (Staphylococcus aureus [4]): 256 mg/L (≈ 1700 µM) | MIC [5]: 32 mg/L | MIC [6]: 64 mg/L | MIC [7]: 25.4 mg/L | MIC [8]: 16 mg/L

COc1c2occc2cc2ccc(=O)oc12 [METHOXSALEN]
MIC (Staphylococcus aureus [9]): > 256 mg/L | MIC (Staphylococcus aureus [10]): > 256 mg/L | MIC (Staphylococcus aureus [11]): > 256 mg/L

O=C1C[C@@H](c2ccc(O)cc2)Oc2cc(O)cc(O)c21
MIC [12]: 32 mg/L | MIC [13]: 16 mg/L

COc1ccc(-c2cc(=O)c3c(O)cc(O[C@@H]4O[C@H](CO[C@@H]5O[C@@H](C)[C@H](O)[C@@H](O)[C@H]5O)[C@@H](O)[C@H](O)[C@H]4O)cc3o2)cc1O
MIC [12]: 32 mg/L

C[C@@H]1O[C@@H](Oc2c(-c3cc(O)c(O)c(O)c3)oc3cc(O)cc(O)c3c2=O)[C@H](O)[C@H](O)[C@H]1O
MIC [12]: 32 mg/L

COc1ccc(-c2oc3cc(OC)c(OC)c(O)c3c(=O)c2OC)cc1OC [ARTEMETIN]
MIC (Staphylococcus aureus [14]): 256 mg/L (≈ 659 µM)

C=CCc1ccc(O)c(OC)c1 [EUGENOL]
MIC (Staphylococcus aureus [3]): 102 mg/L (≈ 619 µM) | MIC (Staphylococcus aureus [4]): 128 mg/L (≈ 780 µM)

COc1ccc([C@@H]2CC(=O)c3c(O)cc(O)cc3O2)cc1O
MIC [12]: 8 mg/L | MIC [13]: 16 mg/L

COc1ccc(/C=C/C(=O)c2ccc(O)cc2)cc1OC
MIC (Staphylococcus aureus [15]): 100 mg/L (≈ 352 µM) | MIC (Staphylococcus aureus [16]): 100 mg/L (≈ 352 µM) | MIC (Staphylococcus aureus [17]): 100 mg/L (≈ 352 µM) | MIC (Staphylococcus aureus [18]): 100 mg/L (≈ 352 µM) | MIC (Staphylococcus aureus [19]): 100 mg/L (≈ 352 µM) | MIC (Staphylococcus aureus [20]): 100 mg/L (≈ 352 µM) | MIC (Staphylococcus aureus [21]): 100 mg/L (≈ 352 µM)

COc1ccc(-c2coc3cc(O)cc(O)c3c2=O)cc1O [PRATENSEIN]
MIC (Staphylococcus aureus [22]): 32 mg/L (≈ 107 µM) | MIC (Staphylococcus aureus [23]): 32 mg/L (≈ 107 µM) | MIC (Staphylococcus aureus [24]): 32 mg/L (≈ 107 µM) | MIC (Staphylococcus aureus [25]): 32 mg/L (≈ 107 µM) | MIC (Staphylococcus aureus [26]): 32 mg/L (≈ 107 µM)

CC(C)=CC1=C(NCCO)C(=O)c2ccccc2C1=O
MIC (Staphylococcus aureus [27]): ≥ 1020 mg/L | MIC (Staphylococcus aureus [28]): ≥ 1020 mg/L | MIC [29]: 50.8 mg/L | MIC [30]: 2.51 mg/L | MIC [31]: 128 mg/L | MIC [32]: 32 mg/L

CC[n+]1c(-c2ccccc2)c2cc(N)ccc2c2ccc(N)cc21.[Br-] [HOMIDIUM BROMIDE]
MIC (Staphylococcus aureus [33]): 32 mg/L

C[C@@H]1O[C@@H](Oc2c(-c3ccc(O)c(O)c3)oc3cc(O)cc(O)c3c2=O)[C@H](O)[C@H](O)[C@H]1O
MIC [12]: 64 mg/L

O=C(CCc1ccc(O)cc1)c1c(O)cc(O)cc1O
MIC [12]: 32 mg/L | MIC [13]: 8 mg/L

O=c1c(O)c(-c2ccc(O)cc2)oc2cc(O)cc(O)c12 [KAEMPFEROL]
MIC (Staphylococcus aureus [34]): 125 mg/L (≈ 437 µM) | MIC (Staphylococcus aureus [35]): 250 mg/L (≈ 873 µM) | MIC (Staphylococcus aureus [36]): 125 mg/L (≈ 437 µM)
